Results reported in paper PMC5080841 (Journal of medicinal chemistry, 2016).

Columns and labels:
[1] = biological target: T1, P. aeruginosa HemO (Pseudomonas aeruginosa, UniProt O69002); settings: read-out: binding affinity for HemO; previous work; cited from earlier work
T1 sequence (O69002 1-198): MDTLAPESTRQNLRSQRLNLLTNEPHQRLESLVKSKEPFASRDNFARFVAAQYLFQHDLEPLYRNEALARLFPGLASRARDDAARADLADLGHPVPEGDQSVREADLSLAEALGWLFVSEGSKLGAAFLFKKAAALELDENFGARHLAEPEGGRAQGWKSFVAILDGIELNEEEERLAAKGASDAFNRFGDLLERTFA

[2] = test system: P. aeruginosa; settings: previous work; cited from earlier work
[3] = test system: Caenorhabditis elegans infection model; settings: previous work; cited from earlier work
[4] = biological target: HemO (Pseudomonas aeruginosa, UniProt O69002); experiment: STD NMR binding epitope; settings: relative to the strongest interacting proton

Row | SMILES | Kd [1] [µM] | MIC50 against P. aeruginosa [2] [µg/mL] | curing activity in Caenorhabditis elegans infection model [3] | relative STD interaction of the benzylimine proton [4] [%] | relative STD interaction of the para-position proton [4] [%]
1 | CN(C)c1ccc(/C=N/NC(=N)N)cc1.Cl [Compound 1, (E)-2-(4-(Dimethylamino)benzylidene)hydrazine-carboximidamide Hydrochloride] | 31.2 | 250 | exhibited curing activity | – | –
2 | Cl.NC(N)=N/N=C/c1cccc(OCc2ccccc2)c1 [Compound 24, (E)-2-(3-(Benzyloxy)benzylidene)hydrazinecarboximidamide Hydrochloride] | – | – | – | 100 | 82
